# Assay results reported in the RepoRT retention time repository.
# Experiment: Agilent ZORBAX 300 SB-C18, 150 × 1 mm, 3.5 µm; A: water + 0.01% heptafluorobutyric acid; B: acetonitrile + 0.01% heptafluorobutyric acid; gradient (min/%B) 0/0 100/90
# Conditions: stereoisomer not certain
row,SMILES,LC retention time
1,CC(CCc1ccc(O)cc1)NCC(O)c1ccc(O)cc1 (stereo not drawn),8.93 min
2,CC(=O)NCCC1CCCCN1 (stereo not drawn),6.55 min
3,CCNCCN(CC)CC,6.96 min
4,CCCCCCC[n+]1ccc(-c2cc[n+](CCCCCCC)cc2)cc1,10.5 min
5,COC1=CC(=O)C(=O)C=C1OC,7.13 min
6,COc1cc(N)c(N2CCOCC2)cc1OC,7.99 min
7,Cc1ccc(-c2nn(CC(=O)Nc3cccnc3)c(=O)c3ccccc23)cc1,11.3 min
8,NNC(=S)Nc1ccccc1,8.31 min
9,CC1(C)OCOC1=CC[N+](C)(C)C,7.65 min
10,CC(=O)c1c(C(C)=O)c(C)n(C)c1C,8.65 min
11,CCCN1CCC(=O)CC1,6.66 min
12,O=C(NCc1n[nH]c(=O)c2ccccc12)C(=Cc1ccco1)NC(=O)c1ccco1,9.12 min
13,CNC(C)C(O)c1ccccc1 (stereo not drawn),8.37 min
14,NC(CC(=O)O)c1ccc(C(=O)O)cc1 (stereo not drawn),6.32 min
15,CC1CNC(C)CN1 (stereo not drawn),6.62 min
16,Cc1cc(=O)[nH]c(C(C)C)n1,6.9 min
17,Cc1ccc(NC2=NCC(C)S2)cc1C (stereo not drawn),9.88 min
18,O=C(Nc1ccc(Nc2ccccc2)cc1)C(c1ccccc1)c1ccccc1,17.1 min
19,CN1c2ccccc2CCc2cc(C=O)ccc21,16.3 min
20,Cc1nc2ccccc2nc1CN1C(=O)C2CC=CCC2C1=O (stereo not drawn),11.9 min
21,CC1(c2ccccc2)OCOC1=CC[N+](C)(C)C (stereo not drawn),9.45 min
22,c1nc[nH]n1,1.93 min
23,Cc1ccc2[nH]c3nc4ccccc4nc3c2c1,13.2 min
24,Cc1ccc2c(CN3CCNCC3)cc(=O)oc2c1,8.81 min

row,SMILES,LC retention time
1,Cc1nn[nH]n1,2.16 min
2,Oc1ccc2c(c1)C13CCCCC1(O)C(C2)NCC3 (stereo not drawn),8.57 min
3,Cc1cc(C)c2c(=O)n(CC(=O)NCCCc3ccccc3)c(=O)n(C)c2n1,14.1 min
4,CC(C)Cc1ccc(C(C)C(=O)NCCCn2c3ccccc3c3ccccc32)cc1 (stereo not drawn),20.1 min
5,Cc1[nH]c2ccccc2c1CCN1C(=O)C2CCCCC2C1=O (stereo not drawn),14.3 min
6,CCCCC1CCC(C(=O)NCC2(N(C)C)CCCCC2)CC1 (stereo not drawn),12.4 min
7,Cn1ccc(C(=O)O)cc1=O,5.27 min
8,c1cncc(CN=Nc2nc(N3CCCCC3)nc(N3CCCCC3)n2)c1,11.5 min
9,Nc1cccc2cc[nH]c12,8.08 min
10,Cc1cnc(C)cn1,7.49 min
11,CCSc1cccc2cccnc12,11.7 min
12,Cc1c(N=Cc2ccncc2)c(=O)n(-c2ccccc2)n1C,8.92 min
13,Cc1ccc(C(=O)c2ccc(CC(=O)O)n2C)cc1,10.5 min
14,Cc1cccc(N)c1C,8.05 min
15,Cc1ccc(C(=O)NC(=Cc2ccc(C(C)C)cc2)C(=O)NCc2cccnc2)cc1,11.9 min
16,CC(=CCc1ccccc1)N=Nc1nc(=S)[nH][nH]1,10.6 min
17,CCCCCCN1CNC(=S)NC1,9.89 min
18,O=C1NC(=O)C(c2ccccc2)(c2ccccc2)N1,11 min
19,Cc1cccnc1CN1CCN(Cc2ncccc2C)CC1,7.69 min
20,CCn1c2ccccc2c2cc(C=Nn3c(C)cc(C)cc3=O)ccc21,15.9 min
21,CCCCCCCCCCCCN(C)C,13.7 min
22,CN1C2CCC1CC(OC(=O)C(CO)c1ccccc1)C2 (stereo not drawn),8.92 min
23,NCc1cc2ccccc2o1,8.09 min
24,CNC1C(OC2C(OC3C(O)C(O)C(N=C(N)N)C(O)C3N=C(N)N)OC(C)C2(O)C=O)OC(CO)C(O)C1O (stereo not drawn),7.82 min

row,SMILES,LC retention time
1,Cc1cccc(-n2c(C)nc3ccccc3c2=O)c1,11.9 min
2,CCNC(=O)CC(=O)NCC,5.95 min
3,CCCc1cc(C(N)=O)ccn1,7.11 min
4,NCCCN1CCc2ccccc21,8.54 min
5,OCC1CCCN2CCCCC12 (stereo not drawn),6.81 min
6,COC(=O)c1ccc(Cn2c(=O)n(C)c(=O)c3ccccc32)cc1,13.1 min
7,CCCCN1CNC(=S)N(c2ccccc2C)C1,12.6 min
8,CC(CCc1ccccc1)NCC(O)c1ccc(O)c(C(N)=O)c1 (stereo not drawn),10 min
9,c1ccc(N(c2ccccc2)c2ccccc2)cc1,20.2 min
10,O=C1NCCCC1C(=O)N1CCN(C(=O)c2ccco2)CC1 (stereo not drawn),7.34 min
11,COc1ccc(NC(=O)c2cc3ccccc3oc2=N)cc1,10.1 min
12,CC(N)Cc1ccc2oc3ccccc3c2c1 (stereo not drawn),10.1 min
13,Nc1ccc2c(c1)SSc1cc(N)ccc1-2,10.3 min
14,Cc1[nH]c(C=O)c(C)c1C,10.3 min
15,c1ccn(-c2ccc3cn[nH]c3c2)c1,11.8 min
16,Nc1cccc2c1C(=O)c1cccc(N)c1C2=O,12.6 min
17,Cc1ccccn1,6.01 min
18,C#CC1(N)CCCCC1,7.77 min
19,CC(C)NCCO,5.44 min
20,Cc1nnc(NN=Cc2ccc(N(C)C)cc2)[nH]c1=O,9.86 min
21,CC(C)=C(NC(=O)c1ccccc1)C(=O)NCCc1c(C)[nH]c2ccccc12,12.3 min
22,Cc1cc(=O)[nH]c(N=C(N)N2CCOCC2)n1,6.89 min
23,Cc1cc(C)n(CCO)c(=O)n1,5.92 min

# Results, then the compound that gave them:
row,LC retention time,SMILES
1,14.3 min,CCN(CC)c1ccc(C=NNC(=O)C(C)Nc2ccc3ccccc3c2)cc1 (stereo not drawn)
2,6.84 min,c1cn[nH]c1
3,6.42 min,O=C(O)c1cc(-c2ccccc2)c(C(=O)O)cn1
4,7.04 min,CC(C)C(N)C(C)(C)O (stereo not drawn)
5,11.2 min,COc1c(C)cccc1C(=O)NC(CC(C)C)C(N)=O (stereo not drawn)
6,8.25 min,CC1(C)CC(O)N=C1c1ccccc1 (stereo not drawn)
7,9.58 min,O=C1NC(Cc2c[nH]c3ccccc23)C(=O)NC1Cc1c[nH]c2ccccc12 (stereo not drawn)
8,12.4 min,CC1CCCCN1C(=O)c1ccccc1NC(=O)c1ccco1 (stereo not drawn)
9,9.74 min,Nc1ccc2ncn(Cc3ccccc3)c(=O)c2c1
10,9.46 min,C#CC1(NC(C)=O)CCCCC1
11,15.4 min,c1ccc(Nc2ccccc2)cc1
12,7.28 min,NC1c2ccccc2CC1O (stereo not drawn)
13,15.8 min,c1ccc(-c2cc3ccccc3[nH]2)cc1
14,9.7 min,CC(C)CN(CC(C)C)CC(C)C
15,16.2 min,CCCOC(=O)c1ccc(NC(=O)c2ccc(C)cc2)cc1
16,14.2 min,CC(C)(C)c1ccc(C(=O)NN=Cc2c[nH]c3ccccc23)cc1
17,17.6 min,CC(=O)C(=C1NC(C)(C)Cc2cc(C)c(C)cc21)c1ccccc1
18,8.79 min,CCC(O)(CC)c1ccccc1N
19,4.39 min,CC(C)(N)CO
20,9.89 min,CC(CCc1ccccc1)NCc1ccco1 (stereo not drawn)
21,7.72 min,O=C(O)CC1C(=O)Nc2ccccc21 (stereo not drawn)

row,LC retention time,SMILES
1,4.63 min,CNCCOC
2,11.7 min,c1ccc2c(N3CCCCC3)nc(N3CCCC3)nc2c1
3,8.45 min,COc1cccc2c1NCCC2
4,8.38 min,O=CNC1CCCCC1
5,6.73 min,c1coc(C2=NCCN2)c1
6,8.03 min,O=c1[nH]c(-c2ccccc2)cn1C1CCNCC1
7,12 min,Cc1ccc(-c2ccc(C(=O)O)[nH]2)cc1
8,8.13 min,COc1cccc(OCCN)c1
9,7.27 min,Nc1ccc2c(c1)COC2=O
10,8.44 min,CNCCCc1cc(C)ccc1O
11,9.19 min,CCN(CC)CC(=O)Nc1c(C)cccc1C
12,12.1 min,Cc1cc(C(c2cc(C)c(N)c(C)c2)c2ccco2)cc(C)c1N
13,17.8 min,CCCCCCCCCn1cc[n+](CCCCCCCCC)c1C
14,6.65 min,c1cncc(-c2ncc[nH]2)c1
15,7.03 min,CCCCN(C)C
16,9.56 min,COc1ccc(C=NNC(N)=O)c(OC)c1
17,5.73 min,C=CCN(C)C
18,7.06 min,Cn1c(=O)n(-c2cccc(N)c2)c(=O)n1C
19,15.7 min,c1ccc2c3c([nH]c2c1)CCCC3
20,7.39 min,OCC1Cc2ccccc2CN1 (stereo not drawn)
21,9.6 min,COc1cc(C2ON=C(CN3CCOCC3)C2C)c(OC)c2c1OCO2 (stereo not drawn)

row,LC retention time,SMILES
1,6.83 min,Nc1ccccc1C(=O)N1CCNC(=O)C1
2,3.96 min,CN1CCOCC1
3,11.1 min,CC(=O)Oc1cccc(C(=O)NN2C(=O)c3ccccc3C2=O)c1
4,9.09 min,Cc1ccc(-c2nn[nH]n2)n1C
5,10.3 min,Cc1cccc(CN2CCN(CN3C(=O)c4ccccc4C3=O)CC2)c1
6,7.39 min,O=c1[nH]c2ccccc2c(=O)n1CCO
7,6.79 min,C#CC(C)(C)NC(C)=O
8,10.8 min,CCCCCCC1(C)OCOC1=CC[N+](C)(C)C (stereo not drawn)
9,14.3 min,COC(=O)c1ccc(NC(=O)Nc2cccc3ccccc23)cc1
10,8.41 min,CC(C(=O)O)n1cccc1 (stereo not drawn)
11,10.2 min,O=C1CC2(CCCC2)CC(=O)N1CCCCN1CCN(c2ncccn2)CC1
12,14.3 min,CCCCOC(=O)C1C(C)=NC(=O)NC1c1ccc(CC)cc1 (stereo not drawn)
13,16.1 min,O=C(O)c1ccc2c(c1)C1C=CCC1C(c1cccc3ccccc13)N2 (stereo not drawn)
14,6.94 min,CN1CCCN(C)C1=O
15,9.64 min,Cc1ccc2cc(C(=O)O)c(=O)[nH]c2c1
16,7.01 min,NC1CCCCC1N (stereo not drawn)
17,14.8 min,COC(=O)c1ccc2[nH]c3c(c2c1)CCCC3
18,9.75 min,O=C(NCCN1CCN(Cc2ccccc2)CC1)C(=O)Nc1ccccc1
19,2.25 min,Nc1cc(=O)[nH]c(=S)[nH]1
20,10.3 min,Nn1cnn(Cc2ccccc2)c1=S
